Results on 13 compounds are retold here after US11447466B2, “Substituted indole compounds useful as inhibitors of TLR7/8/9” (BRISTOL-MYERS SQUIBB COMPANY, priority 2017, dated 2022).

What all share (assay type): cell-based
For test [1], the target named is T1, human TLR7 (Homo sapiens, UniProt Q9NYK1).
T1 construct: host or cells: HEK-Blue cells
T1 sequence (Q9NYK1 27-1049): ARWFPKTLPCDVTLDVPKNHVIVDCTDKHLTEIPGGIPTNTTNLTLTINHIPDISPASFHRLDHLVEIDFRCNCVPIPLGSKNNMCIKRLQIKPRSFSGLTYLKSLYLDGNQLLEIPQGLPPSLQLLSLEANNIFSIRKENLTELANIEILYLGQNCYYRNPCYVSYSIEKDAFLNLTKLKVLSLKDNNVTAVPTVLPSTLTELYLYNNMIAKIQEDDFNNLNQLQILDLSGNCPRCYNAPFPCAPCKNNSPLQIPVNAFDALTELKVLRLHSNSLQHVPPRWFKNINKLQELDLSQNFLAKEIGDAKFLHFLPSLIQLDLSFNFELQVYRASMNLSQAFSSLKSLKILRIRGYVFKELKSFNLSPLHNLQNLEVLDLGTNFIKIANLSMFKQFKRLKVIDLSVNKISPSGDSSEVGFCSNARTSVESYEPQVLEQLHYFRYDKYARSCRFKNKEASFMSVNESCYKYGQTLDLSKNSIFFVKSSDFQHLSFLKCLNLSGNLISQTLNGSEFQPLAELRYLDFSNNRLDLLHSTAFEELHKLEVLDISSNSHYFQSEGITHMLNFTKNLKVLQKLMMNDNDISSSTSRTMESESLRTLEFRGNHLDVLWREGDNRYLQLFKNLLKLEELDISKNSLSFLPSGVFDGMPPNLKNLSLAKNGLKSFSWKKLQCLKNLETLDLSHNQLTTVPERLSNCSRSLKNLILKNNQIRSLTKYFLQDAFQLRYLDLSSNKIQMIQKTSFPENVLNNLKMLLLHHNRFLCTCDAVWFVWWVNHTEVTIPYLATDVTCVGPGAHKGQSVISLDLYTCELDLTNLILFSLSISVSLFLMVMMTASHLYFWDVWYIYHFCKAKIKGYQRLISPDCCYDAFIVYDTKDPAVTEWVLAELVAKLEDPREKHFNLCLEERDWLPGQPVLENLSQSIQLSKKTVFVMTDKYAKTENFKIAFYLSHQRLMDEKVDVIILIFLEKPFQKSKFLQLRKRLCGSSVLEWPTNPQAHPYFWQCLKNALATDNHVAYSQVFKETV
The experiment in a line: TLR7 inhibition reporter assay (HEK-Blue SEAP reporter, gardiquimod stimulation). Conditions: HEK-Blue cells overexpressing human TLR7, SEAP reporter, gardiquimod 7.5 μM, 22 hour incubation. In a few lines: (§1)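 Dose–response from 0.05 nM to 50 μM was run in HEK-Blue human TLR7, TLR8 and TLR9 reporter cells. After 30 min at room temperature with compound, ligand was added (TLR7 gardiquimod 7.5 μM; TLR8 R848 15.9 μM; TLR9 ODN2006 5 nM) and SEAP measured next day, at 22 h.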

Test [2] addresses T2, human TLR9 (Homo sapiens, UniProt Q9NR96).
T2 construct: host or cells: HEK-Blue cells
T2 sequence (Q9NR96 26-1032): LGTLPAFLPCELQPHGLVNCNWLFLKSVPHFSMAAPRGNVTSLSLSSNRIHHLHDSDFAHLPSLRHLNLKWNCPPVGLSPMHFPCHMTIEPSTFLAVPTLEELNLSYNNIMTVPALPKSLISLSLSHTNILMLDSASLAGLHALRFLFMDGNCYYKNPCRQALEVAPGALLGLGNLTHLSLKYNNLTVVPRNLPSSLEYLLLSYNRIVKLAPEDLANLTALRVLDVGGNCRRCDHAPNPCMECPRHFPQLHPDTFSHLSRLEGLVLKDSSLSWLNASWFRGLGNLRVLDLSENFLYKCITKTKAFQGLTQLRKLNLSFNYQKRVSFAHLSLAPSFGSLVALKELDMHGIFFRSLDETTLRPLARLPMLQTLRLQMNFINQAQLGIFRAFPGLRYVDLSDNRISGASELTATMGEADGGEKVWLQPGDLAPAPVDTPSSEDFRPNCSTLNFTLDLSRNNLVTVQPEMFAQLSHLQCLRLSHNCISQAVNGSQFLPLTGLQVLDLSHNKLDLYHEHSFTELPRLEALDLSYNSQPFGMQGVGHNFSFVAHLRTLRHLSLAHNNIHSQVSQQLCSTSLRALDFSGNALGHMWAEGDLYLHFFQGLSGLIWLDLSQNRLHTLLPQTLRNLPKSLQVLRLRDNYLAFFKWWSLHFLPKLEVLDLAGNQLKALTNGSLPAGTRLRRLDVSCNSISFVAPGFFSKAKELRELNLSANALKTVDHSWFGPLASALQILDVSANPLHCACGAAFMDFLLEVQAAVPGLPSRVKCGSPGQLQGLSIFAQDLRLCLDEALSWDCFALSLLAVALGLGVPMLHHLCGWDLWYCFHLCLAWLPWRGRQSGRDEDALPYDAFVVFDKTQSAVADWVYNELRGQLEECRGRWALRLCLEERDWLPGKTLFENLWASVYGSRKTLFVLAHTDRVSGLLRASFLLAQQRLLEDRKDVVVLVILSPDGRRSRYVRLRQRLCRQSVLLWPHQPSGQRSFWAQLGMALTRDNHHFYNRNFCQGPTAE
Put plainly: TLR9 inhibition reporter assay (HEK-Blue SEAP reporter, ODN2006 stimulation). The note with it: HEK-Blue cells overexpressing human TLR9, SEAP reporter, ODN2006 5 nM, 22 hour incubation. Put shortly:
as §1

Test [3] has as its target T3, human TLR8 (Homo sapiens, UniProt Q9NR97).
T3 construct: host or cells: HEK-Blue cells
T3 sequence (Q9NR97 27-1041): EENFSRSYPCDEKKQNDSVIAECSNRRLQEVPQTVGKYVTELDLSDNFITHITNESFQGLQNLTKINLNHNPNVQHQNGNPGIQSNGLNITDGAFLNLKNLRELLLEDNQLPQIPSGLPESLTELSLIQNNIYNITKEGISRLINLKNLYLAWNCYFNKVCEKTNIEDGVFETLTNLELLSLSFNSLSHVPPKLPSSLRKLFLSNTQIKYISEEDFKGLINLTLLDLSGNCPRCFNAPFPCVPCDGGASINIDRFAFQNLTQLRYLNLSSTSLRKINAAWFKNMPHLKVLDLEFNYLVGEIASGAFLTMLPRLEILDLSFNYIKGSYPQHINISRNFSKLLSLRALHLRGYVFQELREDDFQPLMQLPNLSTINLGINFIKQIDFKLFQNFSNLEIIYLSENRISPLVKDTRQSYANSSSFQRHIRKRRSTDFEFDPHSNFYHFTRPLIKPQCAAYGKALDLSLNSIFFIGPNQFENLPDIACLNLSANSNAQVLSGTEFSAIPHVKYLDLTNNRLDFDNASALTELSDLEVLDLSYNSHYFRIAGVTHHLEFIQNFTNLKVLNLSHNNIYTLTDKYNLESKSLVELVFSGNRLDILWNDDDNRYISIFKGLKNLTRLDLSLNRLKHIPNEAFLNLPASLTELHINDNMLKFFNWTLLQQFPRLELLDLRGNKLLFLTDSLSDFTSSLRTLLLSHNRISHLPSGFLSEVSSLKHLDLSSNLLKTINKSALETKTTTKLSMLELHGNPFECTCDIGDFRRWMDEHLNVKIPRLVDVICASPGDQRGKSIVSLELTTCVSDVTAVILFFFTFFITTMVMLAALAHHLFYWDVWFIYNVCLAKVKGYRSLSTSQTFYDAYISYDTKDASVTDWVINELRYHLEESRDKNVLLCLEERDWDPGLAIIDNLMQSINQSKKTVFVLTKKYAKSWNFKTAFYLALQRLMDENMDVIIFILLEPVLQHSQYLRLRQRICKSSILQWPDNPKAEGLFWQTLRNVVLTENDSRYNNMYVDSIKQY
Put plainly: TLR8 inhibition reporter assay (HEK-Blue SEAP reporter, R848 stimulation). The note with it: HEK-Blue cells overexpressing human TLR8, SEAP reporter, R848 15.9 μM, 22 hour incubation. In a few lines:
as §1

`Cc1nc(-c2[nH]c3ccc(C4CCN(C(C)C)CC4)cc3c2C(C)C)cn(C)c1=O` [Example 184, 5-(3-isopropyl-5-(1-isopropylpiperidin-4-yl)-1H-indol-2-yl)-1,3-dimethylpyrazin-2(1H)-one]: the IC50 turned out to be 71.8 nM in test [1], 2120 nM in test [2] and 34.2 nM in test [3].

Take `Cc1c(-c2[nH]c3ccc(C4CCN(C5COC5)CC4)cc3c2C(C)C)cn(C)c(=O)c1C#N` [Example 221, 5-(3-isopropyl-5-(1-(oxetan-3-yl)piperidin-4-yl)-1H-indol-2-yl)-1,4-dimethyl-2-oxo-1,2-dihydropyridine-3-carbonitrile]: the results for the IC50 in test [1], in test [2] and in test [3] were 67 nM, 25400 nM and 9.3 nM, respectively.

As to `CC(C)c1c(-c2cc(C(F)(F)F)c(=O)n(C)c2)[nH]c2ccc(C3CCNCC3)cc12` [Example 41, 5-(3-isopropyl-5-(piperidin-4-yl)-1H-indol-2-yl)-1-methyl-3-(trifluoromethyl)pyridin-2(1H)-one], the IC50 in test [1] amounted to 18 nM; in test [2], 1120 nM; in test [3] it was 158 nM.

Take `Cc1c(-c2[nH]c3ccc(C4CCN(CC(=O)N(C)C)CC4)cc3c2C(C)C)cn(C)c(=O)c1Cl` [Example 152, 2-(4-(2-(5-chloro-1,4-dimethyl-6-oxo-1,6-dihydropyridin-3-yl)-3-isopropyl-1H-indol-5-yl)piperidin-1-yl)-N,N-dimethylacetamide]: the figures for the IC50 in test [1], in test [2] and in test [3] were 1.4 nM, 16600 nM and 4.6 nM, respectively.

`Cc1cc(-c2[nH]c3ccc(C4CCNCC4)cc3c2C(C)C)cn(-c2ccccc2)c1=O` [Example 44, 5-(3-isopropyl-5-(piperidin-4-yl)-1H-indol-2-yl)-3-methyl-1-phenylpyridin-2(1H)-one]: the values for the IC50 in test [1], in test [2] and in test [3] were 3.8 nM, 2080 nM and 19.4 nM, respectively.

Take `Cc1cc(-c2[nH]c3ccc(C4CCNCC4)cc3c2C(C)C)cn(CC(F)(F)F)c1=O` [Example 45, 5-(3-isopropyl-5-(piperidin-4-yl)-1H-indol-2-yl)-3-methyl-1-(2,2,2-trifluoroethyl)pyridin-2(1H)-one]: the IC50 in test [1] is 12.9 nM; in test [2] it was 4670 nM; in test [3] it was 48.4 nM.

As to `CNC(=O)CN1CCC(c2ccc3[nH]c(-c4cn(C)c(=O)c(C)c4C)c(C(C)C)c3c2)CC1` [Example 135, 2-(4-(3-isopropyl-2-(1,4,5-trimethyl-6-oxo-1,6-dihydropyridin-3-yl)-1H-indol-5-yl)piperidin-1-yl)-N-methylacetamide], the IC50 in test [1] is 5.3 nM; in test [2], 19000 nM; in test [3], 5.6 nM.

As to `CC(C)c1c(-c2ccc(=O)n(C)n2)[nH]c2ccc(C3CCNCC3)cc12` [Example 5, 6-(3-isopropyl-5-(piperidin-4-yl)-1H-indol-2-yl)-2-methylpyridazin-3(2H)-one], the IC50 in test [1] came out at 179 nM; in test [2], 763 nM; in test [3], 107 nM.

With `COc1ncccc1-c1cc(-c2[nH]c3ccc(C4CCNCC4)cc3c2C(C)C)cn(C)c1=O` [Example 57, 5-(3-isopropyl-5-(piperidin-4-yl)-1H-indol-2-yl)-2′-methoxy-1-methyl[3,3′-bipyridin]-2(1H)-one], the results for the IC50 in test [1], in test [2] and in test [3] were 68.4 nM, 1360 nM and 81.9 nM, respectively.

As for `CCn1cc(-c2[nH]c3ccc(C4CCN(C5COC5)CC4)cc3c2C(C)C)cc(C)c1=O` [Example 204, 1-ethyl-5-(3-isopropyl-5-(1-(oxetan-3-yl)piperidin-4-yl)-1H-indol-2-yl)-3-methylpyridin-2(1H)-one], the IC50 in test [1] was 14.6 nM; in test [2], at least 50000 nM; in test [3], 18 nM.

For the compound `CC(C)c1c(-c2cc(-c3cncnc3)c(=O)n(C)c2)[nH]c2ccc(C3CCN(CC4COC4)CC3)cc12` [Example 94, 5-(3-isopropyl-5-(1-(oxetan-3-ylmethyl)piperidin-4-yl)-1H-indol-2-yl)-1-methyl-3-(pyrimidin-5-yl)pyridin-2(1H)-one], the IC50 in test [1] amounted to 8 nM; in test [2], 2030 nM; in test [3], 1.3 nM.

Consider `Cc1cc(-c2[nH]c3ccc(C4CCN(CC(C)(C)O)CC4)cc3c2C(C)C)nn(C)c1=O` [Example 311, 6-(5-(1-(2-hydroxy-2-methylpropyl)piperidin-4-yl)-3-isopropyl-1H-indol-2-yl)-2,4-dimethylpyridazin-3(2H)-one], for which the IC50 in test [1] is 17.7 nM; in test [2], 3150 nM; in test [3] it was 3.9 nM.

For the compound `CNC(=O)CN1CCC(c2ccc3[nH]c(-c4cc(C)c(=O)n(Cc5ccccc5)c4)c(C(C)C)c3c2)CC1` [Example 162, 2-(4-(2-(1-benzyl-5-methyl-6-oxo-1,6-dihydropyridin-3-yl)-3-isopropyl-1H-indol-5-yl)piperidin-1-yl)-N-methylacetamide], the IC50 amounted to 8.4 nM in test [1], 4120 nM in test [2] and 99.4 nM in test [3].
